Values joined by “and” are separate entries in the source; they are usually repeats but may differ in a detail not shown here. Identical values can stand only once.

One assay addresses 3CLPro (Severe acute respiratory syndrome coronavirus 2, UniProt P0DTD1). The settings on record: cited from earlier work; for IC50: read-out: IC50 (inhibition of 3CLPro), summary of Table 3.
The target in another assay is SARS-CoV-2 3CLPro (Severe acute respiratory syndrome coronavirus 2, UniProt P0DTD1). Briefly: Native-PAGE binding with SARS-CoV-2 viral 3CLPro (Example 8). The conditions noted are these: 62.5-1000 μM samples mixed with 40 μM 3CLPro, 4° C., 3 hours.
For the next assay, the system named is SARS-CoV-2. Briefly: SARS-CoV-2 virucidal assay in Vero E6 cells (qPCR of viral genome). The assay is classed as cell-based. The conditions noted are these: Vero E6, MOI=0.01, 24 h. On the technique in general: Real-time PCR tracks product formation cycle by cycle.
The target of another assay is 2019-nCoV 3CLPro (Severe acute respiratory syndrome coronavirus 2, UniProt P0DTD1). Briefly: 2019-nCoV 3CLPro proteolytic activity, fluorogenic substrate, samples at 3 μM (Example 4). The assay is classed as biochemical. The settings on record: estimated from single concentration 3 μM; read-out: approximately half maximal inhibition (IC50) at the concentration.

One may read the IC50 as the midpoint of a concentration-inhibition curve. In the case of `Cc1c(O)cccc1C(=O)N[C@@H](CSc1ccccc1)[C@H](O)CN1C[C@H]2CCCC[C@H]2C[C@H]1C(=O)NC(C)(C)C` [Nelfinavir], the IC50 on 3CLPro was greater than 100 µM.
`O=C(OC[C@H]1O[C@@H](OC(=O)c2cc(O)c(O)c(OC(=O)c3cc(O)c(O)c(OC(=O)c4cc(O)c(O)c(O)c4)c3)c2)[C@H](OC(=O)c2cc(O)c(O)c(OC(=O)c3cc(O)c(O)c(OC(=O)c4cc(O)c(O)c(O)c4)c3)c2)[C@@H](OC(=O)c2cc(O)c(O)c(OC(=O)c3cc(O)c(O)c(OC(=O)c4cc(O)c(O)c(O)c4)c3)c2)[C@@H]1OC(=O)c1cc(O)c(O)c(OC(=O)c2cc(O)c(O)c(OC(=O)c3cc(O)c(O)c(O)c3)c2)c1)c1cc(O)c(O)c(OC(=O)c2cc(O)c(O)c(OC(=O)c3cc(O)c(O)c(O)c3)c2)c1` [Sample 6, (2S,3R,4S,5R,6R)-6-(((3-((3,4-dihydroxy-5-((3,4,5-trihydroxybenzoyl)oxy)benzoyl)oxy)-4,5-dihydroxybenzoyl)oxy)methyl)tetrahydro-2H-pyran-2,3,4,5-tetrayl tetrakis(3-((3,4-dihydroxy-5-((3,4,5-trihydroxybenzoyl)oxy)benzoyl)oxy)-4,5-dihydroxybenzoate)]: the “binding to SARS-CoV-2 3CLPro by native-PAGE (mobility shift)” value (“binding … (mobility shift)” below) on SARS-CoV-2 3CLPro is listed as “significant binding”.
Take `Cc1cccc(C)c1OCC(=O)N[C@@H](Cc1ccccc1)[C@@H](O)C[C@H](Cc1ccccc1)NC(=O)[C@H](C(C)C)N1CCCNC1=O` [Lopinavir]: the “IC50 of the 3CLPro (result in words)” value on 3CLPro (20 μM, Ma et al., 2020) is on record as 20 μM, failed to inhibit. In addition, the IC50 on 3CLPro was greater than 100 µM.
As for `CCC[C@@]1(CCc2ccccc2)CC(O)=C([C@H](CC)c2cccc(NS(=O)(=O)c3ccc(C(F)(F)F)cn3)c2)C(=O)O1` [Tipranavir], on 3CLPro, the IC50 is greater than 100 µM.
Regarding `O=C(OC[C@H]1O[C@@H](OC(=O)c2cc(O)c(O)c(OC(=O)c3cc(O)c(O)c(O)c3)c2)[C@H](OC(=O)c2cc(O)c(O)c(OC(=O)c3cc(O)c(O)c(O)c3)c2)[C@@H](OC(=O)c2cc(O)c(O)c(OC(=O)c3cc(O)c(O)c(O)c3)c2)[C@@H]1OC(=O)c1cc(O)c(O)c(OC(=O)c2cc(O)c(O)c(O)c2)c1)c1cc(O)c(O)c(OC(=O)c2cc(O)c(O)c(O)c2)c1` [Sample 4, (2S,3R,4S,5R,6R)-3,4,5-tris(3,4-dihydroxy-5-(3,4,5-trihydroxybenzoyloxy)benzoyloxy)-6-((3,4-dihydroxy-5-(3,4,5-trihydroxybenzoyloxy)benzoyloxy)methyl)oxan-2-yl 3,4-dihydroxy-5-(3,4,5-trihydroxybenzoyloxy)benzoate], the “binding … (mobility shift)” value on SARS-CoV-2 3CLPro is on record as “significant binding”.
Broadly, the EC99 is the concentration at which the effect reaches the 99% level. Low values mean greater potency, high ones weaker potency. For `CCC(CC)COC(=O)[C@H](C)N[P@](=O)(OC[C@H]1O[C@@](C#N)(c2ccc3c(N)ncnn23)[C@H](O)[C@@H]1O)Oc1ccccc1` [Remdesivir], the EC99 with SARS-CoV-2 (cell layer) was 15 µM and 15.000 µM; in the assay with SARS-CoV-2 (supernatant) it was 15 µM and 15.000 µM.
Regarding `O=C(O)c1cc(O)c(O)c(O)c1` [GA, gallic acid], the “binding … (mobility shift)” value at SARS-CoV-2 3CLPro is on record as “no significant binding”.
In the case of `O=C(OC[C@H]1O[C@H](OC(=O)c2cc(O)c(O)c(O)c2)[C@H](OC(=O)c2cc(O)c(O)c(O)c2)[C@@H](OC(=O)c2cc(O)c(O)c(O)c2)[C@@H]1OC(=O)c1cc(O)c(O)c(O)c1)c1cc(O)c(O)c(O)c1` [Sample 1], the potency estimated from few doses at 2019-nCoV 3CLPro was roughly 3 µM.
Turning to `CC(C)(C)NC(=O)[C@@H]1C[C@@H]2CCCC[C@@H]2CN1C[C@@H](O)[C@H](Cc1ccccc1)NC(=O)[C@H](CC(N)=O)NC(=O)c1ccc2ccccc2n1` [Saquinavir], the IC50 on 3CLPro was greater than 100 µM.
In the case of `O=C(OC[C@H]1O[C@@H](OC(=O)c2cc(O)c(O)c(O)c2)[C@H](OC(=O)c2cc(O)c(O)c(O)c2)[C@@H](OC(=O)c2cc(O)c(O)c(O)c2)[C@@H]1OC(=O)c1cc(O)c(O)c(O)c1)c1cc(O)c(O)c(O)c1` [Sample 2, (2S,3R,4S,5R,6R)-3,4,5-tris(3,4,5-trihydroxybenzoyloxy)-6-((3,4,5-trihydroxybenzoyloxy)methyl)oxan-2-yl 3,4,5-trihydroxybenzoate], the potency estimated from few doses at 2019-nCoV 3CLPro is roughly 3 µM.
